For data set [1] the following is noted: Crystal; DSC.
A short description of data set [2]: Molar enthalpy of transition or fusion. The settings on record: Crystal; DSC.

This note sets out measurements from the NIST ThermoML archive (doi:10.1021/acs.jced.8b00425).

Numbers after ± are expanded uncertainties.

For `O=c1[nH]cc(F)c(=O)[nH]1` [5-fluoro-2,4(1H,3H)-pyrimidinedione], the Triple point temperature in data set [1] was 555.66 ± 0.88 K. Besides, the “Molar enthalpy of transition or fusion” value in data set [2] was found to be 6.88 ± 0.177 kcal/mol.
